Data on 2 compounds can be found in US7662824B2, “Acylhydrazones as kinase modulators” (Janssen Pharmaceutica NV, priority 2005, dated 2010).

The target in data set [1] is T1, c-Met (Homo sapiens, UniProt P08581). Nature of the data set: Delfia autophosphorylation kinase assay on the c-Met. The format is biochemical. On the set-up: The purified His6 tagged cytoplasmic domain of c-Met was diluted to a concentration of 500 ng/ml; made in house; host or cells: Sf9 insect cells with recombinant baculovirus; Large-scale expression and purification were done by the contract lab Pan Vera. The settings on record: His6 tagged cytoplasmic domain of c-Met, 1 μM ATP; read-out: c-Met Delfia Autophos IC50. The protocol: This example describes the cloning, expression, and purification of the cytoplasmic domain of c-Met which has the c-Met receptor tyrosine kinase activity.
A DELFIA time resolved fluorescence assay was developed for screening of compounds that decreases the autophosphorylation thus the kinase activity of c-Met.
The DELFIA assay is non-radioactive. The autophophorylation of the c-Met is measured by an anti-phosphotyrosine antibody coupled to an Europium tag.
A major advantage of this format is that it allowed for the development of an autophosphorylation assay using Ni-chelate plates which bind the hexa-his tag on the recombinant Met kinase. Autophosphorylation assay allows to use a known substrate, Met kinase itself, for the phosphorylation. The DELFIA Met autophosphorylation assay is very sensitive with a signal to noise ratio in excess of 50:1.
The assay procedure for screening is as follows. The purified His6 tagged cytoplasmic domain of c-Met was diluted to a concentration of 500 ng/ml in enzyme dilution buffer (50 mM Tris-HCl, pH8.0, 0.1% BSA) and dispensed to assay plates at a volume of 50 μl per well. Black opaque HisGrab Nickel coated 96 well plates (Pierce, Rockford, Ill.) were selected to run the assay. Next, 2.5 μl of compound in 40% DMSO was added to test wells, 2.5 μl of 40% DMSO only was added to the negative control wells. The autophosphorylation reaction was initiated upon the addition of 50 μl of reaction buffer, 50 mM Tris-HCl, pH 8.0, 10 mM MgCl2, 0.1 mM Na3VO4, 1 mM DTT, 1 μM ATP. Plates were incubated at room temperature for 1 hour followed by 2 washes with 200 μl/well of PBS. Europium conjugated anti-phosphotyrosine antibody, Eu-PY20 from Perkin Elmer was diluted to 50 ng/ml in Delfia AB buffer (Perkin Elmer, Boston, Mass.), added to the 96 well assay plates at a volume of […], and incubated at room temperature for 2 hours. Assay plates were then washed 4 times each with 200 μl/well of Delfia wash buffer (Perkin Elmer). After the final wash 150 μl of Delfia Enhancement solution (Perkin Elmer) was added to each well of the assay plate and incubated at room temperature for 1 hour. Plates were read on an LJL Analyst instrument (Molecular Devices; Sunnyvale, Calif.) with filter settings of 360 excitation, 620 emission, and 410 dichroic. IC50 values were calculated using Graphpad Prism software (Graphpad Software; San Diego, Calif.).
Target sequence in this assay (P08581 956-1390 limits assumed): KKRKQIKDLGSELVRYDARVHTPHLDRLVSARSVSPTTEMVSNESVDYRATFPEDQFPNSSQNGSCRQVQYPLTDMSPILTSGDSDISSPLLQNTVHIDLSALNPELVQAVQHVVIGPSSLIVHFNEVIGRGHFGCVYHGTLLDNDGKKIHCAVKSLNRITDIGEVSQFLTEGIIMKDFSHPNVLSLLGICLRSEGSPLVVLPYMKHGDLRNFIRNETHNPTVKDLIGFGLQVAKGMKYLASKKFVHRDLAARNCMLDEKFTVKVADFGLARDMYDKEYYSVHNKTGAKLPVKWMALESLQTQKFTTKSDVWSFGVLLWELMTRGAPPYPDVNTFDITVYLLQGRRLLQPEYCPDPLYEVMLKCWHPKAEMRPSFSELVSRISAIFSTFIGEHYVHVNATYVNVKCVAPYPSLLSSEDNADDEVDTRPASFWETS

Data set [2] deals with T1, c-Met. Put plainly: Fluorescence polarization assay on the kinase activity of c-Met. Particulars: 6H-TEV-cMet, poly Gly4Tyr substrate, 10 μM ATP; read-out: c-Met FP Enz IC50. On the set-up: The c-Met kinase domain consists amino acid 1046-1390 of the c-Met protein; made in house; host or cells: Sf9 insect cells with baculovirus. The format is biochemical. The text has this:
A fluorescence polarization assay (FP) was developed for screening of compounds that decreases the kinase activity of c-Met.
A protein (6H-TEV-cMet) comprising c-Met kinase domain was cloned, recombinantly expressed and purified following a procedure similar to that as described in Example A. The protein comprises a His tag consisting of six histidines at its N-terminal, a TEV protease cleavage site, and the c-Met kinase domain. The c-Met kinase domain consists amino acid 1046-1390 of the c-Met protein as listed in GenBank protein accession number P08581.
For the c-Met kinase assay, the 6H-TEV-cMet was used as the enzyme, and a poly Gly4Tyr peptide (Sigma, P-0275) was used as the substrate. The kinase reaction was performed in a volume of 10 μl in HE microplates (LJL Biosystems). Assay conditions were as follows: 100 mM HEPES pH 7.5, 0.01% Tween-20, 1 mM DTT, 5 mM MgCl2, 10 μM ATP, 10 μg/ml poly Gly4Tyr. The kinase reaction was initiated upon addition of 10 nM 6H-TEV-cMet. After a 12 minute incubation at room temperature the reaction was terminated with […] 50 mM EDTA.
Phosphorylation of the peptide substrate was detected with PanVera Tyrosine Kinase Assay Kit, Green reagents (P2837). Five minutes after the addition of EDTA, 10 μl of antibody/tracer mix (Pan Vera reagents, 1:1:3 dilution of antibody: Tracer: FP dilution buffer, Cat. # P2837) was added to each well. Plates were allowed to incubate for 30 minutes at room temperature and fluorescence polarization was measured with an LJL Analyst instrument (Molecular Devices; Sunnyvale, Calif.) with excitation=485 nm filter and emission=530 nm filter. IC50 values were calculated from triplicate sets of data using Graphpad Prism software (Graphpad Software; San Diego, Calif.).
Target sequence in this assay (P08581 1046-1390): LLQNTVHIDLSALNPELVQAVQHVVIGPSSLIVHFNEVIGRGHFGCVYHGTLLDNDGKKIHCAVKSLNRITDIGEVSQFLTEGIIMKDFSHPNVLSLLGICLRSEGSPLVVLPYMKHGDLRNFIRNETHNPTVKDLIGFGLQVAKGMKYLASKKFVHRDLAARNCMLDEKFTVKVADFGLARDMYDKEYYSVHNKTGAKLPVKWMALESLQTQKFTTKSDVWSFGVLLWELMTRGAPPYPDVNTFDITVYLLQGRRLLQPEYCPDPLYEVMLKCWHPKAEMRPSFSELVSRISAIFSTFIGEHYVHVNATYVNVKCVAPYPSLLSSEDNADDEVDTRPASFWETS
A general note: Fluorescence polarisation rises when a labelled molecule tumbles more slowly, as on binding a larger partner.

A further data set in a line: Aqueous solubility assay. The settings on record: water with 0.4% DMSO, kinetic from dmso stock.

In brackets after ≈: the same amount, converted by molar mass.

Procedure for Aqueous solubility assay: Water, PBS and aqueous HCl at pH2 having a final DMSO content of 0.4%, with the final DMSO concentration reaching 40 μM. Samples were placed in the incubator and shaken for 15 minutes.

What is called IC50 is the midpoint of a concentration-inhibition curve. For orientation: solubility means the dissolved amount per volume that the medium holds. As to `O=C(Cc1ccc2c(c1)CCO2)N/N=C1\C(=O)Nc2cc(C(=O)NCCN3CCOCC3)cc(Br)c21` [Example 6, 4-Bromo-3-[(2-2,3-dihydro-benzofuran-5-yl-acetyl)-hydrazono]-2-oxo-2,3-dihydro-1H-indole-6-carboxylic acid (2-morpholin-4-yl-ethyl)-amide], the IC50 on c-Met [1] and on c-Met [2] was 5 nM throughout. Moreover, the solubility at 15 min in the data set “Aqueous solubility assay” came out at 44 µM (≈ 24.5 µg/mL).

On to `CN(C)CCNC(=O)c1cc(Br)c2c(c1)NC(=O)/C2=N\NC(=O)Cc1ccc2c(c1)CCO2` [Example 8, 4-Bromo-3-[(2-2,3-dihydro-benzofuran-5-yl-acetyl)-hydrazono]-2-oxo-2,3-dihydro-1H-indole-6-carboxylic acid (2-dimethylamino-ethyl)-amide], for which the IC50 at c-Met [1] is 1 nM; at c-Met [2] it was 10 nM. For the same compound, in the data set “Aqueous solubility assay”, the solubility at 15 min stood at 41.1 µM (≈ 21.1 µg/mL).
